{"source": "patent US6783949B1", "about": "“Processes for determining whether a test substance contains lipases or lipase inhibitors” (Aventis Pharma Deutschland GmbH, priority 1999, dated 2004)", "target": "T1, HSL (Rattus norvegicus, UniProt P15304)", "T1 construct": "The partially purified HSL can be stored at −70° C. for 4 to 6 weeks; from tissue; host or cells: rat epididymal fat cells (male Wistar rats)", "T1 sequence (P15304 1-768 isoform P15304-2)": "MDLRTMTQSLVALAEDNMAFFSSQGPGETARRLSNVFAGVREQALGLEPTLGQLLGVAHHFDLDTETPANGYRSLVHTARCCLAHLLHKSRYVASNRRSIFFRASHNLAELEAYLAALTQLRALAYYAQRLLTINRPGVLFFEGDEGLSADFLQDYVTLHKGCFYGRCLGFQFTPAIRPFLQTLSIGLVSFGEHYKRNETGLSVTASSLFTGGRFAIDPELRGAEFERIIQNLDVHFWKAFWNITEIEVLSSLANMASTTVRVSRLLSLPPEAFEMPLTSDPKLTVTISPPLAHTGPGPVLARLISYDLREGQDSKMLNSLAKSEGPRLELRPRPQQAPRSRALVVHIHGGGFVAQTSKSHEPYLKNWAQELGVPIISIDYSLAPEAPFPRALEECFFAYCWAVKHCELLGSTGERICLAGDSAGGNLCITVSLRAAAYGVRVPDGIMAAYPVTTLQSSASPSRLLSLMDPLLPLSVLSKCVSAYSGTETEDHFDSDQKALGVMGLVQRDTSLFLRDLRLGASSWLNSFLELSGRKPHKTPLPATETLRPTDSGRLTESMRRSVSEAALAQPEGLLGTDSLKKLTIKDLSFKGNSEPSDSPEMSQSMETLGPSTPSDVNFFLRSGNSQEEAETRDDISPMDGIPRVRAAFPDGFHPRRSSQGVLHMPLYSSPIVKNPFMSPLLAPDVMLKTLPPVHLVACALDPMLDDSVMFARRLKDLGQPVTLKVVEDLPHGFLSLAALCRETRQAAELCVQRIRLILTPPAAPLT", "test": "Indirect NAG assay (extinction increase at 481 nm)", "type": "biochemical", "experimental": "A typical reaction is carried out at 30° C. for 60 min, for example in 1.5 ml Eppendorf vessels or 96-hole plates. […] 180 μl of the substrate solution (20 μg/ml of phosphatidylcholine, 10 μg/ml of phosphatidylinositol, 50 μg/ml of NAG in assay buffer) are added. After a preincubation for 15 min at 30° C., 20 μl of HSL in assay buffer are pipetted in and the extinction is immediately measured (see above) at 481 nm in a cuvette photometer (0.5 ml cuvette) or microtiter plate reader. After a certain incubation time, which is variable and depends on the chosen enzyme concentration and can be between 2 and 240 minutes, in this case incubation at 30° C. for 60 min, the extinction is measured again. The increase in the extinction in the yellow region, in this case at 481 nm, is a measure of the enzyme activity.\nIsolated rat fat cells are obtained from epididymal fatty tissue from untreated male rats (Wistar, 220-250 g) by collagenase treatment according to published processes. The fat cells from 10 rats are washed three times by flotation with 50 ml each of homogenization buffer ([…], pH 7.4, 0.25 M sucrose, 1 mM ethylenediamine-N,N,N′,N′-tetraacetic acid (EDTA), 1 mM dithiothreitol (DTT), 10 μg/ml of leupeptin, 10 μg/ml of antipain, 20 μg/ml of pepstatin) and finally taken up in 10 ml of homogenization buffer. The fat cells are homogenized in a Teflon-in-glass homogenizer (Braun-Melsungen) by 10 strokes at 1500 rpm and 15° C. The homogenizate is centrifuged (Sorvall SM24 tubes, 5000 rpm, 10 min, 4° C.). The […] between the overlying fatty layer and the pellet is removed and the centrifugation is repeated. The […] resulting from this is centrifuged again (Sorvall SM24 tubes, 20,000 rpm, 45 min, 4° C.). […] After incubation for 60 min at 4° C. (shake at intervals of 15 min), the batch is centrifuged (Sorvall SM24 tubes, 3000 rpm, 10 min, 4° C.). The supernatant is brought to pH 5.2 by addition of glacial acetic acid and incubated at 4° C. for 30 min. […] The suspension is dialyzed overnight at 4° C. against 25 mM TRIS/HCl, pH 7.4, 50% glycerol, 1 mM DTT, and 10 μg/ml of leupeptin, pepstatin, and antipain and then applied to a hydroxylapatite column (0.1 g per 1 ml of suspension, equilibrated with 10 mM potassium phosphate, pH 7.0, 30% glycerol, 1 mM DTT). The column is washed with four volumes of equilibration buffer at a flow rate of 20 to 30 ml/h. The HSL is eluted with a volume of equilibration buffer which contains 0.5 M potassium phosphate, then dialyzed (see above) and concentrated 5 to 10 times by ultrafiltration (Amicon Diaflo PM 10 filter) at 4° C. The partially purified HSL can be stored at −70° C. for 4 to 6 weeks.\n6 mg of phosphatidylcholine and 6 mg of phosphatidylinositol are dissolved in 1 ml of chloroform each. 10 mg of NAG are dissolved in 1 ml of chloroform. […] The chloroform (225 μl total volume) is completely removed by overblowing with a stream of N2. The dried substrate can be stored at 4° C. for up to three days. For the preparation of the phospholipid vesicles/micelles having intercalated NAG (on the test day), the dried substrate is taken up in 20 ml of assay buffer (25 mM TRIS/HCl, pH 7.4; 150 mM NaCl) and two ultrasonic treatments with an ultrasonic probe (Branson Sonifier type 11, standard microtip): 1st treatment setting 2, 2×1 min, in between in each case 1 min on ice; 2nd treatment setting 4, 2×1 min, in between in each case 1 min on ice. […] Before use as a substrate (within the next 2 h), the solution is additionally incubated on ice for 15 min.\nThe assay is carried out at 30° C. for 60 min in 1.5 ml Eppendorf vessels or 96-hole plates.", "key": {"[1]": {"details": "HSL 40 μg, 60 min, NAG 0.05 mg/ml"}, "[2]": {"details": "HSL 60 μg, 60 min, NAG 0.05 mg/ml"}, "[3]": {"details": "HSL 80 μg, 60 min, NAG 0.05 mg/ml"}}}
{"smiles": "O=C(CCCCCCCCCCCNc1ccc([N+](=O)[O-])c2nonc12)OCC(O)CO", "note": "(centres unmarked) [Compound (3)]", "values": [{"measurement": "Increase in the absorption at 481 nm", "setting": "HSL 40 μg, 20 min, NAG 0.05 mg/ml", "result": "477 ± 182", "unit": "arb. units"}, {"measurement": "Increase in the absorption at 481 nm", "setting": "HSL 40 μg, 30 min, NAG 0.05 mg/ml", "result": "2249 ± 286", "unit": "arb. units"}, {"measurement": "Increase in the absorption at 481 nm", "setting": "HSL 40 μg, 45 min, NAG 0.05 mg/ml", "result": "2968 ± 321", "unit": "arb. units"}, {"measurement": "Absorption change, Decrease, 550 nm", "setting": "[1]", "result": "91 ± 19", "unit": "arb. units"}, {"measurement": "Absorption change, Increase, 481 nm", "setting": "[1]", "result": "4623 ± 511", "unit": "arb. units"}, {"measurement": "Increase in the absorption at 481 nm", "setting": "[1]", "result": "4065 ± 399", "unit": "arb. units"}, {"measurement": "Increase in the absorption at 481 nm", "setting": "HSL 40 μg, 75 min, NAG 0.05 mg/ml", "result": "4834 ± 462", "unit": "arb. units"}, {"measurement": "Increase in the absorption at 481 nm", "setting": "HSL 40 μg, 90 min, NAG 0.05 mg/ml", "result": "5472 ± 813", "unit": "arb. units"}, {"measurement": "Increase in the absorption at 481 nm", "setting": "HSL 40 μg, 120 min, NAG 0.05 mg/ml", "result": "5702 ± 531", "unit": "arb. units"}, {"measurement": "Increase in the absorption at 481 nm", "setting": "HSL 40 μg, 180 min, NAG 0.05 mg/ml", "result": "5961 ± 560", "unit": "arb. units"}, {"measurement": "Absorption change, Decrease, 550 nm", "setting": "[2]", "result": "62 ± 17", "unit": "arb. units"}, {"measurement": "Absorption change, Increase, 481 nm", "setting": "[2]", "result": "5466 ± 602", "unit": "arb. units"}, {"measurement": "Absorption change, Decrease, 550 nm", "setting": "[3]", "result": "54 ± 15", "unit": "arb. units"}, {"measurement": "Absorption change, Increase, 481 nm", "setting": "[3]", "result": "5913 ± 485", "unit": "arb. units"}, {"measurement": "Activity relative to HSL", "setting": "HSL, conditions optimized for HSL", "result": 100, "unit": "%"}, {"measurement": "Increase in the absorption at 481 nm", "setting": "NAG 0.002 mg/ml, HSL 5 μg, 60 min", "result": "61 ± 9", "unit": "arb. units"}, {"measurement": "Increase in the absorption at 481 nm", "setting": "NAG 0.002 mg/ml, HSL 20 μg, 60 min", "result": "194 ± 23", "unit": "arb. units"}, {"measurement": "Increase in the absorption at 481 nm", "setting": "NAG 0.002 mg/ml, HSL 40 μg, 60 min", "result": "525 ± 77", "unit": "arb. units"}, {"measurement": "Increase in the absorption at 481 nm", "setting": "NAG 0.005 mg/ml, HSL 5 μg, 60 min", "result": "109 ± 17", "unit": "arb. units"}, {"measurement": "Increase in the absorption at 481 nm", "setting": "NAG 0.005 mg/ml, HSL 20 μg, 60 min", "result": "342 ± 58", "unit": "arb. units"}, {"measurement": "Increase in the absorption at 481 nm", "setting": "NAG 0.005 mg/ml, HSL 40 μg, 60 min", "result": "1420 ± 122", "unit": "arb. units"}, {"measurement": "Increase in the absorption at 481 nm", "setting": "NAG 0.01 mg/ml, HSL 5 μg, 60 min", "result": "227 ± 31", "unit": "arb. units"}, {"measurement": "Increase in the absorption at 481 nm", "setting": "NAG 0.01 mg/ml, HSL 20 μg, 60 min", "result": "852 ± 77", "unit": "arb. units"}, {"measurement": "Increase in the absorption at 481 nm", "setting": "NAG 0.01 mg/ml, HSL 40 μg, 60 min", "result": "2745 ± 264", "unit": "arb. units"}, {"measurement": "Increase in the absorption at 481 nm", "setting": "NAG 0.02 mg/ml, HSL 5 μg, 60 min", "result": "388 ± 45", "unit": "arb. units"}, {"measurement": "Increase in the absorption at 481 nm", "setting": "NAG 0.02 mg/ml, HSL 20 μg, 60 min", "result": "1758 ± 195", "unit": "arb. units"}, {"measurement": "Increase in the absorption at 481 nm", "setting": "NAG 0.02 mg/ml, HSL 40 μg, 60 min", "result": "6705 ± 532", "unit": "arb. units"}, {"measurement": "Increase in the absorption at 481 nm", "setting": "NAG 0.05 mg/ml, HSL 5 μg, 60 min", "result": "705 ± 61", "unit": "arb. units"}, {"measurement": "Increase in the absorption at 481 nm", "setting": "NAG 0.05 mg/ml, HSL 20 μg, 60 min", "result": "3002 ± 409", "unit": "arb. units"}, {"measurement": "Increase in the absorption at 481 nm", "setting": "NAG 0.05 mg/ml, HSL 40 μg, 60 min", "result": "11547 ± 912", "unit": "arb. units"}, {"measurement": "Increase in the absorption at 481 nm", "setting": "NAG 0.075 mg/ml, HSL 5 μg, 60 min", "result": "1121 ± 107", "unit": "arb. units"}, {"measurement": "Increase in the absorption at 481 nm", "setting": "NAG 0.075 mg/ml, HSL 20 μg, 60 min", "result": "768 ± 502", "unit": "arb. units"}]}
